Assays:
LRRK2 wild type enzyme = LRRK2 wild type enzyme (Homo sapiens, UniProt Q5S007); assay: Biochemical Assay: LRRK2 TR-FRET (LanthaScreen) kinase assay with LRRKtide substrate; conditions: LRRK2 Inhibition, Table 8
How it was run: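 TR-FRET detection (Tb-labelled phospho-LRRKtide antibody, EDTA stop, 30 min) followed a 120 min, 23 °C reaction of 3 nM wild-type human LRRK2 with LRRKtide (400 nM) and ATP (25 μM) in Tris pH 8.0. Compounds: 11-point 3-fold series from 10 μM, 15 min enzyme preincubation.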

[1] = target: T1, wild type LRRK2 overexpressed in recombinant HEK-293T cells (Homo sapiens, UniProt Q5S007); assay: pS935 LRRK2 Cell Assay (HTRF, phospho-LRRK2 Ser935); type: cell-based; conditions: LRRK2 Inhibition, Table 8, 2 hours compound incubation
T1 construct: host or cells: HEK293T (transient transfection with pCMV-LRRK2 WT plasmid)
T1 sequence (Q5S007 whole entry): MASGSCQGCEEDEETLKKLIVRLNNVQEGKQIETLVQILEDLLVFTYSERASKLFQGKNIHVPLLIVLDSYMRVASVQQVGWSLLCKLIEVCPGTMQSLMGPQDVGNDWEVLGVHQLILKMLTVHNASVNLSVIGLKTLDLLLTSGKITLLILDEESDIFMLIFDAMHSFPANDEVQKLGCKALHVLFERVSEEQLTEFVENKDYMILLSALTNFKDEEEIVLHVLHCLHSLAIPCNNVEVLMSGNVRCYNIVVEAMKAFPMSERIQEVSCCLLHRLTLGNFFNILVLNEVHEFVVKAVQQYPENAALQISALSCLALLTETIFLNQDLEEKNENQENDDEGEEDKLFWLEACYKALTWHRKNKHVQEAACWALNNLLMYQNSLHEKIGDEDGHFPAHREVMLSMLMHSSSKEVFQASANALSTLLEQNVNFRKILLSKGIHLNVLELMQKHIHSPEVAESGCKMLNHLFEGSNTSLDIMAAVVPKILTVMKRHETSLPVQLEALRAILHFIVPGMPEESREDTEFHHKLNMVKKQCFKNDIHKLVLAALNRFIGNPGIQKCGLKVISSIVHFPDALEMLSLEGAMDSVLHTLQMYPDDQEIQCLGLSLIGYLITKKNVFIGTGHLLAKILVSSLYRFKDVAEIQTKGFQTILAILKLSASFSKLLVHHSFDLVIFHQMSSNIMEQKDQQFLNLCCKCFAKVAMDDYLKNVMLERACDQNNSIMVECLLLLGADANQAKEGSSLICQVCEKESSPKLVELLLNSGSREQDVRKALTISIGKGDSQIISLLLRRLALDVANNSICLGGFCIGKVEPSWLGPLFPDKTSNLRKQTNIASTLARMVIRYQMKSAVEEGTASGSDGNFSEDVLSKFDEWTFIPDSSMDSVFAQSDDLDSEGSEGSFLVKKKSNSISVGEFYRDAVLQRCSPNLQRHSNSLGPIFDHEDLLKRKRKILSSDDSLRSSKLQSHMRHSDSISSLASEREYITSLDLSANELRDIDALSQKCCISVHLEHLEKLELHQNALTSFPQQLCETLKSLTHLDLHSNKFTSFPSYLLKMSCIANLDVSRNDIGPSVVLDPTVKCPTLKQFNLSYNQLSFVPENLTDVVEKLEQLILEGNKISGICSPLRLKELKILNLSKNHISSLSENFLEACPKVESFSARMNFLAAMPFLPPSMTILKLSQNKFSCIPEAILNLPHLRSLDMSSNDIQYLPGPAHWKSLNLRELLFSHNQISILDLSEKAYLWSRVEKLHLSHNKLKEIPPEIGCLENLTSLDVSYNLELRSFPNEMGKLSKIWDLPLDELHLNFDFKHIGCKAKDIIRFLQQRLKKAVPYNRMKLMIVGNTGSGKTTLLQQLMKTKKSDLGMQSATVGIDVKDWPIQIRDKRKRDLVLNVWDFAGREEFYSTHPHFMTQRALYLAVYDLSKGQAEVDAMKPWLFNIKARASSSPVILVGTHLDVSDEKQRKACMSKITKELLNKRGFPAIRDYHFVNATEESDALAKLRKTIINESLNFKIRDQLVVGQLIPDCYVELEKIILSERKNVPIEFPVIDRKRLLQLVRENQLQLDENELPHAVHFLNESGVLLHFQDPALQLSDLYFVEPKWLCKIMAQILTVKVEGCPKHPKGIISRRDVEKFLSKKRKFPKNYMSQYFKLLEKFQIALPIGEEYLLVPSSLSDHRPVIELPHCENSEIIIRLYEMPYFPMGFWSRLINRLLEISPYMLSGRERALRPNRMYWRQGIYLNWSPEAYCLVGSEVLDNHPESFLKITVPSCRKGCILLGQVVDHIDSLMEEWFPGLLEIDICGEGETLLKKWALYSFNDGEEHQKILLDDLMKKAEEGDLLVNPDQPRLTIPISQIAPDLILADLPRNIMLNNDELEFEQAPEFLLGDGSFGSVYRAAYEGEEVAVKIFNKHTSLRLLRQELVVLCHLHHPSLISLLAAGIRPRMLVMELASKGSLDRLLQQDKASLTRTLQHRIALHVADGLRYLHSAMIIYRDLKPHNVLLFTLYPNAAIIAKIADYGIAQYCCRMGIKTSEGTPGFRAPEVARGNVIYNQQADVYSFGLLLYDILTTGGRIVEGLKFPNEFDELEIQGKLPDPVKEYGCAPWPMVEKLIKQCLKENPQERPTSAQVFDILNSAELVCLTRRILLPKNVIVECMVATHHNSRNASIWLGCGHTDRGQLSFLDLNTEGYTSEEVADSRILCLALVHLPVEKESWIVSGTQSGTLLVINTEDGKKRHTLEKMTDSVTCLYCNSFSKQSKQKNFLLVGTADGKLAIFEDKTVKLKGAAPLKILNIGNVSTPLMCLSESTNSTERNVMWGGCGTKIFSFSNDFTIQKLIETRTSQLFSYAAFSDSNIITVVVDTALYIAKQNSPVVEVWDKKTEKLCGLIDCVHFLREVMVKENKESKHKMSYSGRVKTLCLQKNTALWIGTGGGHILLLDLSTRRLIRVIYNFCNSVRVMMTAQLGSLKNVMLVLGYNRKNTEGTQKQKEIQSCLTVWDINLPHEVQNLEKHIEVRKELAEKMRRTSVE
How it was run: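 Phospho-Ser935 LRRK2 measured by two-antibody HTRF (Eu-cryptate donor, d2 acceptor; 665/615 nm ratio) after overnight detection at 23° C. Before lysis, transiently LRRK2-transfected HEK-293T cells were exposed 2 h at 37° C to a 9-point, 3-fold series from 10 μM, with DMSO at 0.2%.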

LRRK2 wild type enzyme, sequence (Q5S007 whole entry): as above

| Structure (SMILES) | IC50 (LRRK2 wild type enzyme) | IC50 [1] |
| --- | --- | --- |
| C[C@@H]1C[C@H](n2c(CCC(=O)NCC3CC3)nc3cnc4ccc(C#N)cc4c32)CCO1 [Compound 170, 3-{8-cyano-1-[(2R,4R)-2-methyloxan-4-yl]-1H-imidazo[4,5-c]quinolin-2-yl}-N-(cyclopropylmethyl)propanamide] | 3.11 nM | 329 nM |
| C[C@@H]1C[C@H](n2c(CC(=O)Nc3ccn(C)c(=O)c3)nc3cnc4ccc(Cl)cc4c32)CCO1 [Compound 212, N-(1-methyl-2-oxo-1,2-dihydro-4-pyridyl){3-[(2R,4R)-2-methyltetrahydro-2H-pyran-4-yl]-12-chloro-3,5,8-triazatricyclo[7.4.0.0^2,6]trideca-1,4,6,8,10,12-hexaen-4-yl}acetamide] | 0.331 nM | 11.5 nM |
| C[C@@H]1C[C@H](n2c(CN3CCCCC3=O)nc3cnc4ccc(C#N)cc4c32)CCO1 [Compound 79, 1-[(2R,4R)-2-methyloxan-4-yl]-2-[(2-oxopiperidin-1-yl)methyl]-1H-imidazo[4,5-c]quinoline-8-carbonitrile] | 10.8 nM | 815 nM |
| C[C@@H]1C[C@H](n2c(CC(=O)Nc3cncn(C)c3=O)nc3cnc4ccc(C#N)cc4c32)CCO1 [Compound 223, N-(1-methyl-6-oxo-1,6-dihydro-5-pyrimidinyl){3-[(2R,4R)-2-methyltetahydro-2H-pyran-4-yl]-12-cyano-3,5,8-triazatricyclo[7.4.0.0^2,6]trideca-1,4,6,8,10,12-hexaen-4-yl}acetamide] | 0.316 nM | 10.8 nM |
| C[C@@H]1C[C@H](n2c(CC(=O)N[C@H](C)C3CC3)nc3cnc4ccc(C#N)cc4c32)CCO1 [Compound 7, 2-{8-cyano-1-[(2R,4R)-2-methyloxan-4-yl]-1H-imidazo[4,5-c]quinolin-2-yl}-N-[(1R)-1-cyclopropylethyl]acetamide] | 0.794 nM | 47.2 nM |
| C[C@@H]1C[C@H](n2c(CC(=O)Nc3cccnc3F)nc3cnc4ccc(C#N)cc4c32)CCO1 [Compound 317, N-(2-fluoro-3-pyridyl){3-[(2R,4R)-2-methyltetrahydro-2H-pyran-4-yl]-12-cyano-3,5,8-triazatricyclo[7.4.0.0^2,6]trideca-1(9),2(6),4,7,10,12-hexaen-4-yl}acetamide] | 0.496 nM | 4.03 nM |
| C[C@@H]1C[C@H](n2c([C@@H]3CCC(=O)N3)nc3cnc4ccc(C#N)cc4c32)CCO1 [Compound 71, 1-[(2R,4R)-2-methyloxan-4-yl]-2-[(2S)-5-oxopyrrolidin-2-yl]-1H-imidazo[4,5-c]quinoline-8-carbonitrile] | 5.49 nM | 4790 nM |
| C[C@@H]1C[C@H](n2c(CC(=O)NCC3CCO3)nc3cnc4ccc(C#N)cc4c32)CCO1 (stereo partly drawn) [Compound 149, 2-{8-cyano-1-[(2R,4R)-2-methyloxan-4-yl]-1H-imidazo[4,5-c]quinolin-2-yl}-N-[(oxetan-2-yl)methyl]acetamide] | 0.715 nM | 74.3 nM |
| C[C@@H]1C[C@H](n2c(CC(=O)NC3(c4ccccn4)CC3)nc3cnc4ccc(C#N)cc4c32)CCO1 [Compound 363, N-[1-(2-pyridyl)cyclopropyl]{3-[(2R,4R)-2-methyltetrahydro-2H-pyran-4-yl]-12-cyano-3,5,8-triazatricyclo[7.4.0.0^2,6]trideca-1,4,6,8,10,12-hexaen-4-yl}acetamide] | 0.533 nM | 2.05 nM |
| C[C@@H]1C[C@H](n2c([C@H]3CN(CC4CC4)S(=O)(=O)C3)nc3cnc4ccc(C#N)cc4c32)CCO1 [Compound 2, 2-[(4R)-2-(cyclopropylmethyl)-1,1-dioxo-1λ^6,2-thiazolidin-4-yl]-1-[(2R,4R)-2-methyloxan-4-yl]-1H-imidazo[4,5-c]quinoline-8-carbonitrile] | 0.662 nM | 39.2 nM |
| C[C@@H]1C[C@H](n2c(CC(=O)N[C@@H]3CCCc4cccnc43)nc3cnc4ccc(C#N)cc4c32)CCO1 [Compound 357, N-[(R)-5,6,7,8-tetrahydro-8-quinolyl]{3-[(2R,4R)-2-methyltetrahydro-2H-pyran-4-yl]-12-cyano-3,5,8-triazatricyclo[7.4.0.0^2,6]trideca-1(9),2(6),4,7,10,12-hexaen-4-yl}acetamide] | 0.628 nM | 10.7 nM |
| Cc1cncc(NC(=O)Cc2nc3cnc4ccc(C#N)cc4c3n2[C@@H]2CCO[C@H](C)C2)n1 [Compound 314, N-(6-methyl-2-pyrazinyl){3-[(2R,4R)-2-methyltetrahydro-2H-pyran-4-yl]-12-cyano-3,5,8-triazatricyclo[7.4.0.0^2,6]trideca-1(9),2(6),4,7,10,12-hexaen-4-yl}acetamide] | 0.542 nM | 2.36 nM |
| C[C@@H]1C[C@H](n2c(CC(=O)NC3CC3)nc3cnc4ccc(C(F)(F)F)cc4c32)CCO1 [Compound 327, N-cyclopropyl{3-[(2R,4R)-2-methyltetrahydro-2H-pyran-4-yl]-12-(trifluoromethyl)-3,5,8-triazatricyclo[7.4.0.0^2,6]trideca-1,4,6,8,10,12-hexaen-4-yl}acetamide] | 1.41 nM | 43.1 nM |
| C[C@@H]1C[C@H](n2c(CC(=O)N(C)C)nc3cnc4ccc(C#N)cc4c32)CCO1 [Compound 9, 2-{8-cyano-1-[(2R,4R)-2-methyloxan-4-yl]-1H-imidazo[4,5-c]quinolin-2-yl}-N,N-dimethylacetamide] | 6.28 nM | 605 nM |
| Cc1nc2ccc(C#N)cc2c2c1nc(CC(=O)NCC1CC1)n2[C@@H]1CCO[C@H](C)C1 [Compound 364, N-cyclopropylmethyl{3-[(2R,4R)-2-methyltetrahydro-2H-pyran-4-yl]-12-cyano-7-methyl-3,5,8-triazatricyclo[7.4.0.0^2,6]trideca-1(9),2(6),4,7,10,12-hexaen-4-yl}acetamide] | 186 nM | 6770 nM |
| C[C@@H]1C[C@H](n2c(CC(=O)Nc3cnn(C)c3)nc3cnc4ccc(C#N)cc4c32)CCO1 [Compound 88, 2-{8-cyano-1-[(2R,4R)-2-methyloxan-4-yl]-1H-imidazo[4,5-c]quinolin-2-yl}-N-(1-methyl-1H-pyrazol-4-yl)acetamide] | 0.457 nM | 24.4 nM |
| Cc1ncnc(C)c1NC(=O)Cc1nc2cnc3ccc(Cl)cc3c2n1[C@@H]1CCO[C@H](C)C1 [Compound 207, N-(4,6-dimethyl-5-pyrimidinyl){3-[(2R,4R)-2-methyltetrahydro-2H-pyran-4-yl]-12-chloro-3,5,8-triazatricyclo[7.4.0.0^2,6]trideca-1,4,6,8,10,12-hexaen-4-yl}acetamide] | 0.333 nM | 7.53 nM |
| C[C@@H]1C[C@H](n2c(CC(=O)NCCc3ccccn3)nc3cnc4ccc(C#N)cc4c32)CCO1 [Compound 366, N-[2-(2-pyridyl)ethyl]{3-[(2R,4R)-2-methyltetrahydro-2H-pyran-4-yl]-12-cyano-3,5,8-triazatricyclo[7.4.0.0^2,6]trideca-1,4,6,8,10,12-hexaen-4-yl}acetamide] | 0.587 nM | 28.4 nM |
| C[C@@H]1C[C@H](n2c(CC(=O)NC3CC34CC4)nc3cnc4ccc(C#N)cc4c32)CCO1 (stereo partly drawn) [Compound 249, N-1-spiro[2.2]pentyl{3-[(2R,4R)-2-methyltetrahydro-2H-pyran-4-yl]-12-cyano-3,5,8-triazatricyclo[7.4.0.0^2,6]trideca-1(9),2(6),4,7,10,12-hexaen-4-yl}acetamide] | 0.691 nM | 17.4 nM |

— US20250270209A1 (INTERLINE THERAPEUTICS, INC., priority 2022, published 2025)
